Source: US9771370B2, “Compounds for the inhibition of indoleamine-2,3-dioxygenase” (Merck Patent GmbH, priority 2014, dated 2017)

Target: Recombinant human IDO (Homo sapiens, UniProt P14902)
Test: Bridge-IT tryptophan fluorescence assay of human IDO-1 inhibition
Type: biochemical
Conditions: recombinant human IDO 7.5 nM, L-tryptophan
Procedure: Measurement of human IDO-1 inhibition is performed in 384 well format using the Bridge-IT® tryptophan Fluorescence Assay (Mediomics, LLC, St. Louis, Mo., U.S.A.).
The reaction is initiated by the addition of L-Tryptophan (Sigma) at a final concentration of 100 μM in assay buffer. After 90 minutes of incubation at 37° C., the reaction is stopped by transferring 1 μl of the reaction mixture to 9 μl of Bridge-IT assay solution A. After 30 min of incubation at 30° C., the fluorescence intensity was measured at λex=485 nm and λem=665 nm using Perkin Elmer Envision® Multilabel Reader.
Measurement of human IDO-1 inhibition was performed in 384-well format using the BRIDGE-IT® tryptophan Fluorescence Assay (Mediomics, LLC, St. Louis, Mo., U.S.A.). […] After 30 minutes of pre-incubation at 25° C., the reaction was initiated by the addition of L-Tryptophan (Sigma) at a final concentration of 50 μM in assay buffer. After 60 minutes of incubation at 25° C., the reaction is stopped by transferring 1 μl of the reaction mixture to 9 μl of Bridge-IT assay solution A. After 30 min of incubation at 30° C., the fluorescence intensity was measured at λex=485 nm and λem=665 nm using Perkin Elmer ENVISION® Multilabel Reader.

Chain of Recombinant human IDO (P14902 whole entry): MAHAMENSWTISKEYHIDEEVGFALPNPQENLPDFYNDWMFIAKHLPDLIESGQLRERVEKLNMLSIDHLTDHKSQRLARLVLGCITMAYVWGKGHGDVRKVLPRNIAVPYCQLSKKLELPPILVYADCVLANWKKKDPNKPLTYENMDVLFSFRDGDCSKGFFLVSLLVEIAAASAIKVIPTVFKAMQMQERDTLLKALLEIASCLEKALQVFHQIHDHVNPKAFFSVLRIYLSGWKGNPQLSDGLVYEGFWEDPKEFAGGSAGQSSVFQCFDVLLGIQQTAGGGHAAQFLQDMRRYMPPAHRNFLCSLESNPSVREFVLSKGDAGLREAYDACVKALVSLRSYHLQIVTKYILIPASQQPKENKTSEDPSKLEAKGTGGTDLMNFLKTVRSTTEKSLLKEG

Row | SMILES | IC50 [µM]
1 | OC1CCC(F)(CCC2c3c(Cl)cccc3-c3cncn32)CC1 (single isomer, unassigned) [Compound 71c, 4-[2-[6-chloro-5H-imidazo[4,3-a]isoindol-5-yl]ethyl]-4-fluorocyclohexan-1-ol] | > 1
2 | OC1CCC(F)(CCC2c3ncccc3-c3cncn32)CC1 (single isomer, unassigned) [Compound 8a, 4-fluoro-4-(2-{4,6,9-triazatricyclo[6.4.0.0^[2,6]]dodeca-1(8),2,4,9,11-pentaen-7-yl}ethyl)cyclohexan-1-ol] | 0.1 to 1
3 | OC(CC1c2ncccc2-c2cncn21)C1CCC2(CC1)CC2 (single isomer, unassigned) [Compound 29d, 1-[spiro[2.5]octan-6-yl]-2-[4,6,9-triazatricyclo[6.4.0.0^[2,6]]dodeca-1(8),2,4,9,11-pentaen-7-yl]ethan-1-ol] | > 1
4 | O=C(C1CCC(F)(CCC2c3ncccc3-c3cncn32)CC1)N1CCCCC1 (mixture of isomers) [Compound 100b, 7-[2-[1-Fluoro-4-[(piperidin-1-yl)carbonyl]cyclohexyl]ethyl]-4,6,9-triazatricyclo[6.4.0.0^[2,6]]dodeca-1(8),2,4,9,11-pentaene] | > 1
5 | OC1CCC(F)(CCC2c3c(F)cccc3-c3cncn32)CC1 (single isomer, unassigned) [Compound 16b, 4-fluoro-4-(2-(6-fluoro-5H-imidazo[5,1-a]isoindol-5-yl)ethyl)cyclohexanol] | 0.1 to 1
6 | Fc1cccc2c1C(CCC1(F)CCCCC1)n1cncc1-2 (single isomer, unassigned) [Compound 19a, 6-fluoro-5-(2-(1-fluorocyclohexyl)ethyl)-5H-imidazo[5,1-a]isoindole] | > 1
7 | OC1(C2CCC(F)(CCC3c4ccccc4-c4cncn43)CC2)CC1 (single isomer, unassigned) [Compound 60d, 1-[4-fluoro-4-[2-[5H-imidazo[4,3-a]isoindol-5-yl]ethyl]cyclohexyl]cyclopropan-1-ol] | < 0.1
8 | OC(CC1c2ncccc2-c2cncn21)C1(F)CCCCC1 (single isomer, unassigned) [Compound 109a, 1-(1-fluorocyclohexyl)-2-[4,6,9-triazatricyclo[6.4.0.0^[2,6]]dodeca-1(8),2,4,9,11-pentaen-7-yl]ethan-1-ol] | > 1
9 | COc1ccc2c(n1)C(CC(O)C1CCC(C)(C)CC1)n1cncc1-2 (single isomer, unassigned) [Compound 40a, 1-(4,4-dimethylcyclohexyl)-2-[10-methoxy-4,6,9-triazatricyclo[6.4.0.0^[2,6]]dodeca-1(8),2,4,9,11-pentaen-7-yl]ethan-1-ol] | > 1
10 | OC(CC1c2ncccc2-c2cncn21)C1(F)CCC(F)(F)CC1 (single isomer, unassigned) [Compound 87b, 2-[4,6,9-triazatricyclo[6.4.0.0^[2,6]]dodeca-1(8),2,4,9,11-pentaen-7-yl]-1-(1,4,4-trifluorocyclohexyl)ethan-1-ol] | > 1
11 | OC(CC1c2nc(OC3CC3)ccc2-c2cncn21)C1CCCCC1 (single isomer, unassigned) [Compound 68a, 1-cyclohexyl-2-[10-cyclopropoxy-4,6,9-triazatricyclo[6.4.0.0^[2,6]]dodeca-1(8),2,4,9,11-pentaen-7-yl]ethan-1-ol] | 0.1 to 1
12 | OC1CCC(F)(CCC2c3cccc(F)c3-c3cncn32)CC1 (single isomer, unassigned) [Compound 35d, 4-fluoro-4-(2-(9-fluoro-5H-imidazo[5,1-a]isoindol-5-yl)ethyl)cyclohexanol] | > 1
13 | FC1(CCC2c3ccccc3-c3cncn32)CCCCC1 (single isomer, unassigned) [Compound 1b, 5-(2-(1-fluorocyclohexyl)ethyl)-5H-imidazo[5,1-a]isoindole] | 0.1 to 1
14 | COc1ccc(F)c2c1-c1cncn1C2CCC1(F)CCCCC1 (single isomer, unassigned) [Compound 45b, 6-fluoro-5-(2-(1-fluorocyclohexyl)ethyl)-9-methoxy-5H-imidazo[5,1-a]isoindole] | > 1
15 | OC(CC1c2nc(Cl)ccc2-c2cncn21)C1CCC(F)(F)CC1 (single isomer, unassigned) [Compound 52a, 2-[10-chloro-4,6,9-triazatricyclo[6.4.0.0^[2,6]]dodeca-1(8),2,4,9,11-pentaen-7-yl]-1-(4,4-difluorocyclohexyl)ethan-1-ol] | 0.1 to 1
16 | OC(CC1c2ncccc2-c2cncn21)C1(F)CCC(F)(F)CC1 (single isomer, unassigned) [Compound 87a, 2-[4,6,9-triazatricyclo[6.4.0.0^[2,6]]dodeca-1(8),2,4,9,11-pentaen-7-yl]-1-(1,4,4-trifluorocyclohexyl)ethan-1-ol] | > 1

Row | SMILES | IC50 [µM]
17 | CC1(C)CCC(C(O)CC2c3nc(F)ccc3-c3cncn32)CC1 (single isomer, unassigned) [Compound 25d, 1-(4,4-dimethylcyclohexyl)-2-[10-fluoro-4,6,9-triazatricyclo[6.4.0.0^[2,6]]dodeca-1(8),2,4,9,11-pentaen-7-yl]ethan-1-ol] | > 1
18 | OCC1CCC(F)(CCC2c3ccccc3-c3cncn32)CC1 (single isomer, unassigned) [Compound 59c, [4-fluoro-4-[2-[5H-imidazo[4,3-a]isoindol-5-yl]ethyl]cyclohexyl]methanol] | < 0.1
19 | OC1CCC(C(F)(F)CC2c3c(F)ccc(F)c3-c3cncn32)CC1 (mixture of isomers) [Compound 78b, 4-(2-[6,9-difluoro-5H-imidazo[4,3-a]isoindol-5-yl]-1,1-difluoroethyl)cyclohexan-1-ol] | > 1
20 | OC1CCC(C(O)CC2c3c(ccnc3F)-c3cncn32)CC1 (mixture of isomers) [Compound 4a, 4-(2-[9-fluoro-4,6,10-triazatricyclo[6.4.0.0^[2,6]]dodeca-1(8),2,4,9,11-pentaen-7-yl]-1-hydroxyethyl) cyclohexan-1-ol] | > 1
21 | NC(=O)C1CCC(F)(CCC2c3c(Cl)cccc3-c3cncn32)CC1 (single isomer, unassigned) [Compound 99a, 4-[2-[6-chloro-5H-imidazo[4,3-a]isoindol-5-yl]ethyl]-4-fluorocyclohexane-1-carboxamide] | > 1
22 | Fc1cccc2c1-c1cncn1C2CCC1(F)CCCCC1 (single isomer, unassigned) [Compound 36a, 9-fluoro-5-(2-(1-fluorocyclohexyl)ethyl)-5H-imidazo[5,1-a]isoindole] | > 1
23 | OC1CCC(CCC2c3ncccc3-c3cncn32)CC1 (centres unmarked) [Compound 47, 4-(2-[4,6,9-triazatricyclo[6.4.0.0^[2,6]]dodeca-1(8),2,4,9,11-pentaen-7-yl]ethyl)cyclohexan-1-ol] | > 1
24 | NC1CCC(F)(CCC2c3ccccc3-c3cncn32)CC1 (mixture of isomers) [Compound 104b, 4-fluoro-4-(2-[5H-imidazo[4,3-a]isoindol-5-yl]ethyl)cyclohexan-1-amine] | 0.1 to 1
25 | COc1ccc2c(n1)C(CC(O)C1CCC3(CC1)CC3)n1cncc1-2 (centres unmarked) [Compound 53a, 2-[10-methoxy-4,6,9-triazatricyclo[6.4.0.0^[2,6]]dodeca-1(8),2,4,9,11-pentaen-7-yl]-1-[spiro[2.5]octan-6-yl]ethan-1-ol] | 0.1 to 1
26 | OC1CCC(F)(CCC2c3nccc(F)c3-c3cncn32)CC1 (centres unmarked) [Compound 103b, 4-fluoro-4-(2-[12-fluoro-4,6,9-triazatricyclo[6.4.0.0^[2,6]]dodeca-1(8),2,4,9,11-pentaen-7-yl]ethyl)cyclohexan-1-ol] | > 1
27 | OC(CC1c2ncccc2-c2cncn21)C1CCCCC1 (single isomer, unassigned) [Compound 5b, 1-cyclohexyl-2-[4,6,9-triazatricyclo[6.4.0.0^[2,6]]dodeca-1(8),2,4,9,11-pentaen-7-yl]ethan-1-ol] | > 1
28 | OC1CCC(C(F)(F)CC2c3c(F)cccc3-c3cncn32)CC1 (centres unmarked) [Compound 75a, 4-(1,1-difluoro-2-[6-fluoro-5H-imidazo[4,3-a]isoindol-5-yl]ethyl)cyclohexan-1-ol] | < 0.1
29 | CC(C)(O)C1CCC(F)(CCC2c3ccccc3-c3cncn32)CC1 (single isomer, unassigned) [Compound 61c, 2-[4-fluoro-4-[2-[5H-imidazo[4,3-a]isoindol-5-yl]ethyl]cyclohexyl]propan-2-ol] | < 0.1
30 | Fc1ccc(F)c2c1-c1cncn1C2CCC1(F)CCCCC1 (single isomer, unassigned) [Compound 37b, 6,9-difluoro-5-(2-(1-fluorocyclohexyl)ethyl)-5H-imidazo[5,1-a]isoindole] | 0.1 to 1
31 | NC(=O)C1CCC(F)(CCC2c3ccccc3-c3cncn32)CC1 (single isomer, unassigned) [Compound 79b, 4-fluoro-4-[2-[5H-imidazo[4,3-a]isoindol-5-yl]ethyl]cyclohexane-1-carboxamide] | > 1
32 | CC1(C)CCC(C(O)CC2c3nc(F)ccc3-c3cncn32)CC1 (single isomer, unassigned) [Compound 25b, 1-(4,4-dimethylcyclohexyl)-2-[10-fluoro-4,6,9-triazatricyclo[6.4.0.0^[2,6]]dodeca-1(8),2,4,9,11-pentaen-7-yl]ethan-1-ol] | > 1
